Experimental data: patent US5439904A, “2-spiro(2'-spirocycloalkyl)cyclopropyl cephalosporin sulfones as antiinflammatory and antigenerative agents” (Synphar Laboratories, Inc., priority 1993, dated 1995)

The compounds below were run against T1, HLE (Homo sapiens, UniProt P08246) (assay: Enzyme assay for inhibition of HLE (human leukocyte elastase)). Conditions: purified elastase from human white blood cells, 10 nM; 10 minute preincubation; 0.35 mM MeO-succinyl-L-alanyl-L-alanyl-L-prolyl-L-valine-p-nitroanilide; pH 7.6; 10% dimethylsulfoxide; 410 nm; read-out: IC50 values against HLE.
T1 construct: Purified elastase from human white blood cells; from tissue; host or cells: human white blood cells (purified enzyme)
T1 sequence (P08246 30-247 limits assumed): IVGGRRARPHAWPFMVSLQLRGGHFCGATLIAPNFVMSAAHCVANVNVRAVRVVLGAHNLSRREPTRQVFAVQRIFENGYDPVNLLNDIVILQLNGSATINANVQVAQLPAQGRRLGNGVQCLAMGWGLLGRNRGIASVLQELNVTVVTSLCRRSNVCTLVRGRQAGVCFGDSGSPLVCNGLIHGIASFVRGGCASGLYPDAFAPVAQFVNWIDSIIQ
Type: biochemical
Procedure: ENZYME ASSAY FOR INHIBITION OF HLE
ENZYME: Purified elastase from human white blood cells.
MeO-succinyl-L-alanyl-L-alanyl-L-prolyl-L-valine-
10 mM phosphate buffer (pH 7.6)
The enzyme activity was determined by monitoring the increase in absorbance at 410 nm caused by the hydrolysis of chromogenic substrates. Inhibition of enzyme by the compounds described were determined after a 10 minute preincubation with the enzyme in the reaction mixture minus substrate. Reaction was initiated by the addition of substrate. The concentration of human leukocyte elastase used for assay was at 10 nM.

SMILES	IC50 [nM]
CO[C@H]1C(=O)N2C(C(=O)OC(C)(C)C)=C(CSc3nnnn3C)C3(CC34CCCC4)S(=O)(=O)C12 (stereo partly shown) [Compound 14]	15.3
CO[C@H]1C(=O)N2C(C(=O)N3CCC(C(=O)O)CC3)=C(C)C3(CC34CCCC4)S(=O)(=O)C12 (stereo partly shown) [Compound 5]	58.1
CC1=C(C(=O)OC(c2ccccc2)c2ccccc2)N2C(=O)CC2S(=O)(=O)C12CC21CCCC1 (stereo not shown) [Compound 22, benzhydryl 7,7-dihydro-2-spiro(2'-spirocyclopentyl)-cyclopropyl-3-methyl-3-cephem-4-carboxylate-1,1-dioxide]	478
CC1=C(C(=O)N2CCC(C(=O)OC(C)(C)C)CC2)N2C(=O)CC2S(=O)(=O)C12CC21CCCC1 (stereo not shown) [Compound 17]	870
CO[C@H]1C(=O)N2C(C(=O)N3CCN(CC(=O)OC(C)(C)C)CC3)=C(C)C3(CC34CCCCC4)S(=O)(=O)C12 (stereo partly shown) [Compound 8]	8.37
CO[C@H]1C(=O)N2C(C(=O)N3CCC(C(=O)O)CC3)=C(CSc3nc(=O)c(O)nn3C)C3(CC34CCCC4)S(=O)(=O)C12 (stereo partly shown) [Compound 24]	34
CO[C@H]1C(=O)N2C(C(=O)OC(C)(C)C)=C(CSc3ccccn3)C3(CC34CCCC4)S(=O)(=O)C12 (stereo partly shown) [Compound 13]	9.4
CO[C@H]1C(=O)N2C(C(=O)OC(C)(C)C)=C(CSc3nc(=O)c(O)nn3C)C3(CC34CCCC4)S(=O)(=O)C12 (stereo partly shown) [Compound 12]	15
CO[C@H]1C(=O)N2C(C(=O)N3CCCCC3)=C(CSc3nc(=O)c(O)nn3C)C3(CC34CCCC4)S(=O)(=O)C12 (stereo partly shown) [Compound 16]	32.4
CO[C@H]1C(=O)N2C(C(=O)N3CCN(CC(=O)O)CC3)=C(C)C3(CC34CCCC4)S(=O)(=O)C12 (stereo partly shown) [Compound 4]	139
CO[C@H]1C(=O)N2C(C(=O)N3CCN(CC(=O)O)CC3)=C(C)C3(CC34CCCCC4)S(=O)(=O)C12 (stereo partly shown) [Compound 9]	27
CO[C@H]1C(=O)N2C(C(=O)OC(C)(C)C)=C(CSc3nnc(C)s3)C3(CC34CCCC4)S(=O)(=O)C12 (stereo partly shown) [Compound 15]	10.3
CO[C@H]1C(=O)N2C(C(=O)N3CCC(C(N)=O)CC3)=C(C)C3(CC34CCCC4)S(=O)(=O)C12 (stereo partly shown) [Compound 20]	8.4
CO[C@H]1C(=O)N2C(C(=O)OC(C)(C)C)=C(COC(C)=O)C3(CC34CCCC4)S(=O)(=O)C12 (stereo partly drawn) [Compound 11, t-Butyl-7α-methoxy-2-spiro(2'-spirocyclopentyl)cyclopropyl-3-acetoxymethyl-3-cephem-4-carboxylate-1,1-dioxide]	9.1

Other lines, results leading:

IC50 [nM]	SMILES
6.4	CO[C@H]1C(=O)N2C(C(=O)N3CCN(C)CC3)=C(C)C3(CC34CCCCC4)S(=O)(=O)C12 (stereo partly shown) [Compound 7]
3.9	CO[C@H]1C(=O)N2C(C(=O)c3ccccc3)=C(C)C3(CC34CCCC4)S(=O)(=O)C12 (stereo partly shown) [Compound 21]
24.4	CO[C@H]1C(=O)N2C(C(=O)N3CCN(C)CC3)=C(C)C3(CC34CCCC4)S(=O)(=O)C12 (stereo partly shown) [Compound 3]
27.3	CO[C@H]1C(=O)N2C(C(=O)N3CCN(C)CC3)=C(C)C3(CC34CCCC4)S(=O)(=O)C12 (stereo partly shown) [drawing 6]
80.7	CON=C(C)C1=C(C)C2(CC23CCCC3)S(=O)(=O)C2[C@@H](OC)C(=O)N12 (stereo partly shown) [Compound 19]
10.7	CO[C@H]1C(=O)N2C(C(C)=O)=C(C)C3(CC34CCCC4)S(=O)(=O)C12 (stereo partly shown) [Compound 18]
8.4	CO[C@H]1C(=O)N2C(C(=O)N3CCN(C)CC3)=C(C)C3(CC34CCCCC4)S(=O)(=O)C12 (stereo partly shown) [Compound 10]
75	COC1C(=O)N2C(C(=O)N(C)CC(=O)O)=C(C)C3(CC34CCCC4)S(=O)(=O)C12 (stereo not shown) [Compound 23]
